Assay [1] deals with Influenza virus strain A/CA/04/2009 (H1N1). The assay can be described thus: organism not typed. The class given is cell-based. Conditions: MDCK, 72 h, read-out: H1N1 EC50 (@ 50% Via).
The subject of assay [2] is Madin Darby Canine Kidney (MDCK) cells. The assay is described as follows: cells. Conditions: Canis lupus familiaris, MDCK, read-out: IC50 (toxicity). Type of assay: cell-based.
For assay [3], the system named is influenza strain A/VN/1203/2004 (H5N1). The assay is described as follows: microbe, parasite or virus in culture. The class given is cell-based, Influenza A virus (H5N1).
[4] abbreviates: Influenza A virus, H5N1, MDCK, 72 h, read-out: H5N1 EC50 (@ 50% Via).
Setting [5] is: Influenza A virus, H5N1, MDCK, 72 h, read-out: H5N1 EC50 (Inf Pt).
The mark [6] stands for this setting: read-out: H5N1 EC50 (@ 50% Via).

Read-outs that look alike come from different tables or passages of the source.

This is an account of results in US20120040966A1, “ANTI-VIRAL COMPOUNDS, TREATMENT, AND ASSAY” (priority 2008, published 2012).

As to `COc1ccc(C2NC(O)NC3=C2CN(C(=O)CO)c2ccccc23)cc1Br` (stereo not shown) [compound 23275], the EC50 in assay [1] was less than 0.067 µM; in assay [3] (setting [4]), 0.0027 µM; in assay [3] (setting [5]), 0.0027 µM. Further, in assay [2], the IC50 is greater than 40 µM.
As for `COc1cccc2c1CCC1=C2NC(=O)NC1c1ccc(C)c(C)c1` (stereo not shown) [compound 22113], the values for the concentration for a half-maximal effect (EC50) in assay [1], in assay [3] (setting [5]) and in assay [3] (read-out: H5N1 EC50 (Inf Pt)) were 16.8 µM, 2.4 µM and 4.4 µM, respectively. Further, the IC50 in assay [2] was greater than 50 µM.
As to `CCOc1ccc(C2NC(=O)NC3=C2CCc2ccccc23)cc1C` (stereo not shown) [compound 22711], the EC50 was 37 µM in assay [1], 1.3 µM in assay [3] (setting [4]) and 1.2 µM in assay [3] (setting [5]). Besides, the IC50 in assay [2] is greater than 50 µM.
With `COc1ccc(C2NC(=O)NC3=C2CN(C(=O)CN2CCC2)c2ccccc23)cc1Br` (stereo not shown) [compound 25411], the EC50 in assay [1] came out at 3.7 µM; in assay [3] (setting [4]), 0.814 µM; in assay [3] (setting [5]), 0.755 µM. Moreover, the IC50 in assay [2] is greater than 40 µM.
Regarding `O=C1NC2=C(CCc3ccccc32)C(c2ccc([N+](=O)[O-])cc2)N1` (stereo not shown) [compound 22349], the EC50 in assay [1] was determined as 17.7 µM; in assay [3] (setting [4]), 1.17 µM; in assay [3] (setting [5]) it was 0.95 µM. Moreover, the IC50 in assay [2] was greater than 50 µM.
The corresponding values for `COc1ccc(C2NC(=O)NC3=C2CCc2ccccc23)cc1OC` (stereo not shown) [compound 22524] are 39 µM, 7.4 µM, 7 µM and greater than 50 µM.
Regarding `O=C1NC2=C(COc3ccccc32)C(c2ccc(O)c(Br)c2)N1` (stereo not shown) [compound 22701], the EC50 is 1.6 µM in assay [1]; 0.0262 µM in assay [3] (setting [4]); 0.021 µM in assay [3] (setting [5]); 0.027 µM in assay [3] (setting [6]); 0.027 µM in assay [3] (read-out: H5N1 EC50 (Inf Pt)). Besides, the IC50 in assay [2] was greater than 20 µM.
`COc1c(Br)cc(C2NC(=O)NC3=C2CCc2ccccc23)cc1Br` (stereo not shown) [compound 22703]: the figures for the concentration for a half-maximal effect (EC50) in assay [1], in assay [3] (setting [4]) and in assay [3] (setting [5]) were greater than 40 µM, 38 µM and greater than 40 µM, respectively. In addition, the IC50 in assay [2] was greater than 40 µM.
Take `O=C1NC2=C(CCc3ccccc32)C(c2ccc(Cl)cc2Cl)N1` (stereo not shown) [compound 22406]: the EC50 in assay [1], in assay [3] (setting [4]) and in assay [3] (setting [5]) was greater than 50 µM each time. Besides, the IC50 in assay [2] is greater than 50 µM.
For `COc1ccc(C2NC(=O)NC3=C2CN(C(=O)CN(C)C)c2ccccc23)cc1Br` (stereo not shown) [compound 25012], the 50% effective concentration (EC50) in assay [1] is 3 µM; in assay [3] (setting [4]), less than 0.33 µM; in assay [3] (setting [5]), 0.2 µM. Moreover, the IC50 in assay [2] is greater than 40 µM.
The like results for `COc1ccc(C2NC(=O)NC3=C2CCc2ccccc23)cc1F` (stereo not shown) [compound 22522] were, in that order, 3.8 µM, 0.26 µM, 0.19 µM and greater than 50 µM.
With `COc1ccc(C2NC(=O)NC3=C2CCc2ncccc23)cc1Br` (stereo not shown) [compound 23102], the values for the EC50 in assay [1] and in assay [3] (setting [4]) were greater than 40 µM and 14.5 µM, respectively. In assay [2], the IC50 is greater than 40 µM.
Regarding `COc1ccc(C2NC(=O)NC3=C2CN(C(=O)CSCC(O)CO)c2ccccc23)cc1Br` (stereo not shown) [compound 25412], the EC50 in assay [1] amounted to 3.1 µM; in assay [3] (setting [4]), 0.893 µM; in assay [3] (setting [5]), 0.848 µM. Further, in assay [2], the IC50 was greater than 40 µM.
The like results for `COc1ccc(C2NC(=O)NC3=C2CN(C(=O)CSCCO)c2ccccc23)cc1Br` (stereo not shown) [compound 25413] were, in that order, 3.8 µM, 4.4 µM, 4.5 µM and greater than 40 µM.
With `O=C1NC2=C(CCc3ccccc32)C(c2ccc3c(c2)OCO3)N1` (stereo not shown) [compound 22121], the concentration for a half-maximal effect (EC50) was greater than 50 µM in assay [1], 0.39 µM in assay [3] (setting [4]), 0.34 µM in assay [3] (setting [5]) and 0.22 µM in assay [3] (read-out: H5N1 EC50 (Inf Pt)). Moreover, the IC50 in assay [2] came to 29.6 µM.
With `COc1cc(C2NC(=O)NC3=C2CCc2ccccc23)ccc1F` (stereo not shown) [compound 22517], the EC50 in assay [1] is greater than 50 µM; in assay [3] (setting [4]), 9.6 µM; in assay [3] (setting [5]) it was 7.2 µM. Also, the IC50 in assay [2] was greater than 50 µM.
In the case of `COc1ccc2c(c1)C1=C(CC2)C(c2ccc(C)cc2)NC(=O)N1` (stereo not shown) [compound 22087], the 50% effective concentration (EC50) in assay [1] was 47 µM; in assay [3] (setting [4]), greater than 50 µM. The half-maximal inhibitory concentration (IC50) in assay [2] was greater than 50 µM.
As for `Cc1ccc(C2NC(=O)NC3=C2COc2ccccc23)cc1C` (stereo not shown) [compound 22105], the EC50 in assay [1] came out at 14.9 µM; in assay [3] (setting [4]), 1.8 µM; in assay [3] (setting [5]) it was 1 µM; in assay [3] (setting [6]), 2.7 µM; in assay [3] (read-out: H5N1 EC50 (Inf Pt)) it was 1.9 µM. For the same compound, the IC50 in assay [2] was greater than 50 µM.
As for `COc1cccc2c1CCC1=C2NC(=O)NC1c1ccc(C)cc1` (stereo not shown) [compound 22123], the concentration giving a half-maximal response (EC50) in assay [1] is greater than 50 µM; in assay [3] (setting [4]) it was 18.3 µM; in assay [3] (setting [5]), 10.9 µM. For the same compound, in assay [2], the IC50 was greater than 50 µM.
Turning to `COc1ccc(C2NC(=O)NC3=C2CCCc2ccccc23)cc1Br` (stereo not shown) [compound 23096], the EC50 worked out at 0.153 µM in assay [1], 0.242 µM in assay [3] (setting [4]) and 0.28 µM in assay [3] (setting [5]). Besides, in assay [2], the IC50 was greater than 40 µM.
`COc1ccc(-c2nc(=O)[nH]c3c2CCc2ccccc2-3)cc1` [compound 22125]: the 50% effective concentration (EC50) in assay [1] was 24 µM; in assay [3] (setting [4]), 0.96 µM; in assay [3] (setting [5]) it was 0.92 µM; in assay [3] (setting [6]), 1.62 µM; in assay [3] (read-out: H5N1 EC50 (Inf Pt)), 1.45 µM. In addition, the IC50 in assay [2] is greater than 50 µM.
As for `CCOc1cccc(C2NC(=O)NC3=C2CCc2ccccc23)c1` (stereo not shown) [compound 22520], the values for the EC50 in assay [1] and in assay [3] (setting [5]) were greater than 50 µM and 7.1 µM, respectively. The IC50 in assay [2] is greater than 50 µM.
In the case of `COc1ccc(C2NC(=O)NC3=C2CN(C(=O)CNCCO)c2ccccc23)cc1Br` (stereo not shown) [compound 24717], the EC50 was determined as 5.6 µM in assay [1], 2.1 µM in assay [3] (setting [4]) and 2.1 µM in assay [3] (setting [5]). In addition, in assay [2], the IC50 is greater than 40 µM.
As to `COC(=O)N1CC2=C(NC(=O)NC2c2ccc(OC)c(Br)c2)c2ccccc21` (stereo not shown) [compound 25408], the EC50 in assay [1] is 9.7 µM; in assay [3] (setting [4]), 0.208 µM; in assay [3] (setting [5]), 0.201 µM. Moreover, in assay [2], the IC50 was greater than 40 µM.
As for `CCC(=O)N1CC2=C(NC(=O)NC2c2ccc(OC)c(Br)c2)c2ccccc21` (stereo not shown) [compound 23205], the EC50 in assay [1] turned out to be 10.1 µM; in assay [3] (setting [4]) it was 0.193 µM; in assay [3] (setting [5]), 0.189 µM. Also, the IC50 in assay [2] is greater than 40 µM.
The like results for `COc1ccc(C2NC(=O)NC3=C2CN(C(=O)c2ccco2)c2ccccc23)cc1Br` (stereo not shown) [compound 23209] were, in that order, greater than 40 µM, greater than 40 µM, greater than 40 µM and greater than 40 µM.
The corresponding values for `COc1ccc(C2NC(=O)NC3=C2CCc2c(OC)cccc23)cc1Br` (stereo not shown) [compound 22722] are 1.1 µM, greater than 0.062 µM, greater than 0.062 µM and greater than 0.062 µM.
The like results for `COc1ccc(C2NC(=O)NC3=C2CN(C(=O)CNC2CC2)c2ccccc23)cc1Br` (stereo not shown) [compound 24718] were, in that order, 8 µM, 9.7 µM, 9.7 µM and greater than 40 µM.
Consider `O=C1NC2=C(CCc3ccccc32)C(c2ccc(C(F)(F)F)cc2)N1` (stereo not shown) [compound 22119], for which the EC50 was determined as 11.7 µM in assay [1], 32.9 µM in assay [3] (setting [4]) and 14.8 µM in assay [3] (setting [5]). In assay [2], the 50% inhibitory concentration (IC50) was greater than 50 µM.
Take `COc1ccc(C2NC(=O)NC3=C2CN(C(=O)CNC(=O)CO)c2ccccc23)cc1Br` (stereo not shown) [compound 25414]: the EC50 is greater than 40 µM in assay [1], 0.277 µM in assay [3] (setting [4]) and 0.275 µM in assay [3] (setting [5]). Besides, the IC50 in assay [2] is greater than 40 µM.
As to `O=C1NC2=C(CCc3ccccc32)C(c2cccc([N+](=O)[O-])c2)N1` (stereo not shown) [compound 22347], the EC50 is greater than 50 µM in assay [1], 5.5 µM in assay [3] (setting [4]) and 4.2 µM in assay [3] (setting [5]). Further, the IC50 in assay [2] was greater than 50 µM.
Regarding `COc1ccc(C2NC(=O)NC3=C2CN(C(=O)CNC(C)=O)c2ccccc23)cc1Br` (stereo not shown) [compound 25350], the EC50 in assay [1] amounted to 0.622 µM; in assay [3] (setting [4]), 0.045 µM; in assay [3] (setting [5]), 0.044 µM. The IC50 in assay [2] was greater than 40 µM.
The like results for `O=C1NC2=C(C(c3ccc4c(c3)OCO4)N1)C(c1ccccc1)Oc1ccccc12` (stereo not shown) [compound 22421] were, in that order, greater than 50 µM, greater than 50 µM, greater than 50 µM and greater than 50 µM.

A word on the EC50: it is the concentration at which the effect is half-maximal. As a reminder, the IC50 is the concentration that gives 50% inhibition.
